{"source": "BindingDB's records for doi:10.1021/jm010216r", "about": "(Academia Sinica, 2001)", "test": "Inhibitory activity against PRPP synthetase"}
{"smiles": "Nc1ncnc2ncn(CCOCP(=O)(O)O)c12", "note": "[[2-(6-Amino-purin-7-yl)-ethoxymethyl]-phosphonic acid]", "values": [{"measurement": "Ki", "value": 17, "unit": "mM"}]}
